The target of experiment [1] is HiBIT-WDR5 (HiBIT-tagged full length WDR5) (Homo sapiens, UniProt P61964). The experiment in a line: in vitro NanoBRET tracer displacement. Type of experiment: binding. Background: BRET reads energy transfer from a luciferase to a nearby fluorophore.
The target of experiment [2] is T1, HiBIT-WDR5 (Homo sapiens, UniProt P61964). Description: cell-based. Details: species or system HEK293T HiBIT-WDR5. Particulars: HEK-293T, read-out: CETSA thermal shifts [°C].
Experiment [3] concerns the target T1, HiBIT-WDR5. The experiment in a line: cell-based. Also noted: species or system HEK293T HiBIT-WDR5. Particulars: HEK-293T, read-out: Dmax (23-24h) at 7.5 µM in %.

Where only a bound is given, the exact number is not on record here.

We go through four compounds from paper doi:10.1101/2023.01.11.523589v2 (biorxiv, 2023).

The term IC50 denotes the concentration at which inhibition is half-maximal. With `CC(=O)N[C@H](C(=O)N1C[C@H](O)C[C@H]1C(=O)NCc1ccc(-c2scnc2C)cc1)C(C)(C)C` [VH032, reference compound], in experiment [1], the IC50 was above 3 µM.

Turning to `Cc1ncsc1-c1ccc([C@H](C)NC(=O)[C@H]2C[C@H](O)CN2C(=O)[C@@H](NC(=O)CNC(=O)c2ccc(F)c(-c3ccc(N4C[C@@H](C)N(C)[C@@H](C)C4)c(NC(=O)c4c[nH]c(=O)cc4C(F)(F)F)c3)c2)C(C)(C)C)cc1` [MS67N], at HiBIT-WDR5 [2], the ΔTm at 10 µM came out at 11.6 °C.

Consider `Cc1ncsc1-c1ccc([C@H](C)NC(=O)[C@@H]2C[C@@H](O)CN2C(=O)[C@@H](NC(=O)CNC(=O)c2ccc(F)c(-c3ccc(N4C[C@@H](C)N(C)[C@@H](C)C4)c(NC(=O)c4c[nH]c(=O)cc4C(F)(F)F)c3)c2)C(C)(C)C)cc1` [MS67], for which the Dmax at 7.5 µM at HiBIT-WDR5 [3] was found to be 69 ± 4%. For the same compound, the ΔTm at 10 µM on HiBIT-WDR5 [2] is 13.8 °C.

For the compound `CC(=O)N[C@H](C(=O)N1C[C@H](O)C[C@H]1C(=O)NCc1ccc(-c2scnc2C)cc1)C(C)(C)C` [VH032], the ΔTm at 10 µM on HiBIT-WDR5 [2] worked out at 2.6 °C.
